The structures appear in SMILES notation.

The record followed here is ChEMBL document CHEMBL1150983, “Synthesis of novel taxol analogs and evaluation of their biological activities” (1997).

The assay relates to J774.2. Put plainly: Cytotoxicity tested against J774.2 cells. The assay is classed as functional. As to conditions: Mus musculus, read-out: ED50 (the source's name).

For the compound `CC(=O)O[C@H]1C(=O)[C@@]2(C)[C@H]([C@H](OC(=O)c3ccccc3)[C@]3(O)C[C@H](OC(=O)[C@H](O)[C@@H](NC(=O)c4ccccc4)c4ccccc4)C(C)=C1C3(C)C)[C@]1(OC(C)=O)CO[C@@H]1C[C@@H]2O` [PACLITAXEL], the EC50 was determined as 16 nM.

Turning to `CC(=O)O[C@@]12CO[C@@H]1C[C@@H](O)[C@@]1(C)C(=O)c3[se]cc4c3[C@@](C(C)(C)O)(C[C@@H]4OC(=O)[C@H](O)[C@@H](NC(=O)c3ccccc3)c3ccccc3)[C@@H](OC(=O)c3ccccc3)[C@H]21`, the EC50 was 900 nM. In the case of `CC(=O)O[C@H]1C(=O)[C@@]2(C)[C@H]([C@H](OC(=O)c3ccccc3)[C@]3(O)C[C@H](OC(=O)[C@H](O)[C@@H](NC(=O)c4ccccc4)c4ccccc4)C(C)=C1C3(C)C)[C@]1(OC(C)=O)CO[C@@H]1[C@@H]2O`, the EC50 was 250 nM.
